Literature values in patent US20190015339A1, “PHARMACEUTICAL COMBINATION FORMULATION” (SHIN POONG PHARMACEUTICAL CO., LTD., priority 2015, published 2019).
Where two headings read alike, the source gives them in different places.

For `CCOc1nc2cccc(C(=O)OC(C)OC(=O)OC3CCCCC3)c2n1Cc1ccc(-c2ccccc2-c2nnn[nH]2)cc1` (centres unmarked) [candesartan cilexetil], the absolute bioavailability (used as a solution) is given as “about 40%” and the absolute bioavailability (used as a tablet formulation) is given as “about 15%”.
